Assay [1] concerns Mtb clinical strain TN587 (isoniazide-resistant). It is filed as cell-based, Mycobacterium tuberculosis.
The test system of assay [2] is Mtb clinical strain NHN382 (isoniazide-resistant). It is filed as cell-based, Mycobacterium tuberculosis.

≈ marks a conversion by molar mass, not a printed value.

On to `CCCCOC(=O)Nc1cc2nc(C3CCCCC3)[nH]c2cc1N(C)C` [Compound 5f, 5-Butyloxycarbonylamino-2-cyclohexyl-6-N,N-dimethylamino-1H-benzo[d]imidazole], for which the “MIC, Mtb strain TN587” value in assay [1] is recorded as 0.13 µg/mL (≈ 0.363 µM).

In the case of `NNC(=O)c1ccncc1` [INH, isoniazid, reference compound], in assay [2], the “MIC, Mtb strain NHN382” value stood at 0.25 µg/mL (≈ 1.82 µM). Besides, the “MIC, Mtb strain TN587” value in assay [1] was determined as 0.25 µg/mL (≈ 1.82 µM).

These data come from PMC3933301 (Journal of medicinal chemistry, 2013).
